Experimental data as given in ChEMBL document CHEMBL1201862, “PubChem BioAssay data set” (2004).
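Compound exposure: 48 hours, 5 concentrations, 96-well plates. The concentration for 50% growth inhibition is given as GI50.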 Active and inactive are the calls of the source. Rule as the data show it: active = GI50 up to about 1.1 µM and inactive = higher.

Assays:
Assay in all cases: DTP human tumour cell line panel, 48 h
[1] = test system: EKVX
[2] = test system: SF-268
[3] = test system: M14
[4] = test system: SR
[5] = test system: NCI/ADR-RES
[6] = test system: SK-MEL-5
[7] = test system: 786-0
[8] = test system: UACC-257
[9] = test system: Hs-578T
[10] = test system: HL-60
[11] = test system: SNB-19
[12] = test system: BT-549
[13] = test system: A549
[14] = test system: SNB-75
[15] = test system: MOLT-4
[16] = test system: ACHN
[17] = test system: UACC-62
[18] = test system: OVCAR-5
[19] = test system: U-251

Measured: GI50

O=C1NNC2(C(=O)N1)c1ccccc1-c1ccccc12
inactive: [1] 6.71 µM | [2] > 10 µM | [3] > 10 µM | [4] > 10 µM | [5] > 10 µM | [6] > 10 µM | [7] > 10 µM | [8] > 10 µM | [9] > 10 µM | [10] > 10 µM | [11] > 10 µM | [12] > 10 µM | [13] > 10 µM | [14] > 10 µM | [15] > 10 µM | [16] > 10 µM | [17] > 10 µM

NC(=S)SC1=NC(=O)C2(NN1)c1ccccc1-c1ccccc12
inactive: [1] 6.58 µM | [2] > 10 µM | [3] > 10 µM | [4] > 10 µM | [5] 6.84 µM | [6] 6.12 µM | [7] > 10 µM | [8] > 10 µM | [9] > 10 µM | [10] > 10 µM | [11] > 10 µM | [12] > 10 µM | [13] > 10 µM | [14] > 10 µM | [16] 5.36 µM | [17] > 10 µM

COC(=O)c1c2c(cc3c1CC1(Cc4ccc(C(C)=O)cc4C1)C3)CCC2 (stereo not drawn)
inactive: [1] 42.7 µM | [2] 83.2 µM | [4] 20.7 µM | [5] 21.3 µM | [6] 18 µM | [7] 51.8 µM | [8] 25.2 µM | [9] 28.4 µM | [10] 17.1 µM | [18] > 100 µM | [19] 50.7 µM | [12] 56.8 µM | [13] 33.1 µM | [14] 30.4 µM | [15] 21 µM | [16] 66.8 µM | [17] 35.7 µM

O=C1OC(C(O)CO)C(C(O)CO)OC1=O (stereo not drawn)
inactive: [1] > 10 µM | [2] > 10 µM | [3] > 10 µM | [4] > 10 µM | [5] > 10 µM | [6] > 10 µM | [7] > 10 µM | [8] > 10 µM | [9] > 10 µM | [10] > 10 µM | [18] > 10 µM | [11] > 10 µM | [19] > 10 µM | [12] > 10 µM | [13] > 10 µM | [15] > 10 µM | [16] > 10 µM | [17] > 10 µM

C(=C/CCCN1O[C@@H](CCCCCCCCc2cccnc2)[C@H]2CCC[C@H]21)/CCCCCCCCCc1cccnc1
inactive: [1] 4.48 µM | [2] 23.4 µM | [3] 24 µM | [4] 17.2 µM | [5] 28.1 µM | [6] 17.5 µM | [7] 18.7 µM | [8] 14.6 µM | [9] 37.8 µM | [10] 5.22 µM | [18] 20 µM | [11] 25.6 µM | [19] 15.7 µM | [12] 33 µM | [13] 14.1 µM | [14] 27.1 µM | [15] 21.7 µM | [17] 20.9 µM

O=C(O)CCC(N/N=N/c1ccc(-c2nc3ccccc3[nH]2)cc1)C(=O)O (stereo not drawn)
inactive: [1] > 100 µM | [3] 54.1 µM | [4] 29.7 µM | [5] 27.8 µM | [6] 66.5 µM | [7] 52.1 µM | [8] > 100 µM | [9] 44.4 µM | [10] 37.2 µM | [18] > 100 µM | [11] > 100 µM | [19] 43.7 µM | [12] 23.9 µM | [13] 78.7 µM | [14] 59.2 µM | [15] 31.6 µM | [16] 28.2 µM
